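Tested at 5 concentrations; 48 h exposure; 96-well plates; endpoints linearly interpolated, else capped at highest concentration. GI50 is the concentration that inhibits growth by half. TGI denotes the concentration required for complete inhibition of growth.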
Legend:
Assay in all cases: inhibition of tumour cell growth, NCI panel, 48 h
SNB-19 CNS = tested on: SNB-19 CNS
CCRF-CEM leukemia = tested on: CCRF-CEM leukemia
MOLT-4 leukemia = tested on: MOLT-4 leukemia
OVCAR-3 ovarian = tested on: OVCAR-3 ovarian
CAKI-1 renal = tested on: CAKI-1 renal
SK-OV-3 ovarian = tested on: SK-OV-3 ovarian
NCI/ADR-RES ovarian = tested on: NCI/ADR-RES ovarian
A498 renal = tested on: A498 renal
M14 melanoma = tested on: M14 melanoma
UO-31 renal = tested on: UO-31 renal
TK-10 renal = tested on: TK-10 renal
HCT-15 colon = tested on: HCT-15 colon
OVCAR-4 ovarian = tested on: OVCAR-4 ovarian
UACC-257 melanoma = tested on: UACC-257 melanoma
DU-145 prostate = tested on: DU-145 prostate
NCI-H522 lung = tested on: NCI-H522 lung
MDA-MB-435 = tested on: MDA-MB-435
OVCAR-5 ovarian = tested on: OVCAR-5 ovarian
T-47D breast = tested on: T-47D breast
ACHN renal = tested on: ACHN renal
KM12 colon = tested on: KM12 colon
SW-620 colon = tested on: SW-620 colon
RPMI-8226 leukemia = tested on: RPMI-8226 leukemia
HL-60(TB) leukemia = tested on: HL-60(TB) leukemia
SR leukemia = tested on: SR leukemia
SF-539 CNS = tested on: SF-539 CNS
HS 578T breast = tested on: HS 578T breast
NCI-H23 lung = tested on: NCI-H23 lung
HOP-62 NSCLC = tested on: HOP-62 NSCLC
UACC-62 melanoma = tested on: UACC-62 melanoma
NCI-H226 lung = tested on: NCI-H226 lung
SF-268 CNS = tested on: SF-268 CNS
PC-3 prostate = tested on: PC-3 prostate
U251 CNS = tested on: U251 CNS
SK-MEL-28 melanoma = tested on: SK-MEL-28 melanoma
MALME-3M melanoma = tested on: MALME-3M melanoma
MDA-MB-231 breast = tested on: MDA-MB-231 breast
SK-MEL-5 melanoma = tested on: SK-MEL-5 melanoma
NCI-H460 lung = tested on: NCI-H460 lung
SF-295 CNS = tested on: SF-295 CNS
RXF 393 renal = tested on: RXF 393 renal
SN12C renal = tested on: SN12C renal
786-0 renal = tested on: 786-0 renal
COLO 205 colon = tested on: COLO 205 colon
SNB-75 CNS = tested on: SNB-75 CNS
HOP-92 NSCLC = tested on: HOP-92 NSCLC
OVCAR-8 ovarian = tested on: OVCAR-8 ovarian
HT29 colon = tested on: HT29 colon
HCT-116 colon = tested on: HCT-116 colon
K-562 leukemia = tested on: K-562 leukemia
LOX IMVI melanoma = tested on: LOX IMVI melanoma
A549 NSCLC = tested on: A549 NSCLC
HCC-2998 colon = tested on: HCC-2998 colon
SK-MEL-2 melanoma = tested on: SK-MEL-2 melanoma
EKVX NSCLC = tested on: EKVX NSCLC
MCF7 breast = tested on: MCF7 breast

COc1cc(C(=O)/C=C/c2ccc(OCCCCCC[P+](c3ccccc3)(c3ccccc3)c3ccccc3)cc2)cc(OC)c1OC
GI50 (SNB-19 CNS): 0.341 µM
TGI (SNB-19 CNS): 1.31 µM
GI50 (CCRF-CEM leukemia): 0.557 µM
TGI (CCRF-CEM leukemia): 3.09 µM
GI50 (MOLT-4 leukemia): 0.559 µM
TGI (MOLT-4 leukemia): 3 µM
GI50 (OVCAR-3 ovarian): 0.347 µM
TGI (OVCAR-3 ovarian): 1.16 µM
GI50 (CAKI-1 renal): 1.64 µM
TGI (CAKI-1 renal): 2.99 µM
GI50 (SK-OV-3 ovarian): 1.32 µM
TGI (SK-OV-3 ovarian): 2.7 µM
GI50 (NCI/ADR-RES ovarian): 3.58 µM
TGI (NCI/ADR-RES ovarian): > 100 µM
GI50 (A498 renal): 0.71 µM
TGI (A498 renal): 1.97 µM
GI50 (M14 melanoma): 0.971 µM
TGI (M14 melanoma): 3.18 µM
GI50 (UO-31 renal): 1.46 µM
TGI (UO-31 renal): 2.78 µM
GI50 (TK-10 renal): 1.34 µM
TGI (TK-10 renal): 2.81 µM
GI50 (HCT-15 colon): 1.6 µM
TGI (HCT-15 colon): 3.13 µM
GI50 (OVCAR-4 ovarian): 0.374 µM
TGI (OVCAR-4 ovarian): 1.48 µM
GI50 (UACC-257 melanoma): 0.298 µM
TGI (UACC-257 melanoma): 1.26 µM
GI50 (DU-145 prostate): 0.698 µM
TGI (DU-145 prostate): 1.96 µM
GI50 (NCI-H522 lung): 0.342 µM
TGI (NCI-H522 lung): 2.09 µM
GI50 (MDA-MB-435): 0.337 µM
TGI (MDA-MB-435): 1.14 µM
GI50 (OVCAR-5 ovarian): 0.754 µM
TGI (OVCAR-5 ovarian): 2.1 µM
GI50 (T-47D breast): 0.261 µM
TGI (T-47D breast): 1.77 µM
GI50 (ACHN renal): 1.5 µM
TGI (ACHN renal): 2.82 µM
GI50 (KM12 colon): 0.355 µM
TGI (KM12 colon): 1.31 µM
GI50 (SW-620 colon): 0.358 µM
TGI (SW-620 colon): 1.36 µM
GI50 (RPMI-8226 leukemia): 0.214 µM
TGI (RPMI-8226 leukemia): 0.703 µM
GI50 (HL-60(TB) leukemia): 0.227 µM
TGI (HL-60(TB) leukemia): 0.643 µM

CCCCNCC(O)c1cc2c(Cl)cc(Cl)cc2c2cc(C(F)(F)F)ccc12 (centres undefined)
GI50 (SR leukemia): 1.42 µM
TGI (SR leukemia): 3.93 µM
GI50 (SNB-19 CNS): 1.82 µM
TGI (SNB-19 CNS): 3.51 µM
GI50 (CCRF-CEM leukemia): 2.5 µM
TGI (CCRF-CEM leukemia): 5.17 µM
GI50 (SF-539 CNS): 1.69 µM
TGI (SF-539 CNS): 3.44 µM
GI50 (HS 578T breast): 1.59 µM
TGI (HS 578T breast): 3.67 µM
GI50 (NCI-H23 lung): 1.59 µM
TGI (NCI-H23 lung): 3.32 µM
GI50 (HOP-62 NSCLC): 1.77 µM
TGI (HOP-62 NSCLC): 3.28 µM
GI50 (UACC-62 melanoma): 1.86 µM
TGI (UACC-62 melanoma): 3.51 µM
GI50 (NCI-H226 lung): 1.84 µM
TGI (NCI-H226 lung): 3.72 µM
GI50 (SF-268 CNS): 1.84 µM
TGI (SF-268 CNS): 3.71 µM
GI50 (OVCAR-3 ovarian): 1.95 µM
TGI (OVCAR-3 ovarian): 3.46 µM
GI50 (CAKI-1 renal): 1.71 µM
TGI (CAKI-1 renal): 3.44 µM
GI50 (PC-3 prostate): 1.58 µM
TGI (PC-3 prostate): 3.03 µM
GI50 (U251 CNS): 1.72 µM
TGI (U251 CNS): 3.2 µM
GI50 (SK-MEL-28 melanoma): 1.9 µM
TGI (SK-MEL-28 melanoma): 3.41 µM
GI50 (A498 renal): 1.36 µM
TGI (A498 renal): 2.7 µM
GI50 (MALME-3M melanoma): 2.01 µM
TGI (MALME-3M melanoma): 4.26 µM
GI50 (M14 melanoma): 1.81 µM
TGI (M14 melanoma): 3.38 µM
GI50 (MDA-MB-231 breast): 1.6 µM
TGI (MDA-MB-231 breast): 3.27 µM
GI50 (SK-MEL-5 melanoma): 1.71 µM
TGI (SK-MEL-5 melanoma): 3.1 µM
GI50 (NCI-H460 lung): 1.68 µM
TGI (NCI-H460 lung): 3.3 µM
GI50 (SF-295 CNS): 1.85 µM
TGI (SF-295 CNS): 3.67 µM
GI50 (RXF 393 renal): 1.48 µM
TGI (RXF 393 renal): 2.85 µM
GI50 (SN12C renal): 1.85 µM
TGI (SN12C renal): 3.56 µM
GI50 (UO-31 renal): 1.34 µM
TGI (UO-31 renal): 2.83 µM
GI50 (786-0 renal): 1.51 µM
TGI (786-0 renal): 3.43 µM
GI50 (TK-10 renal): 1.98 µM
TGI (TK-10 renal): 3.51 µM
GI50 (HCT-15 colon): 1.79 µM
TGI (HCT-15 colon): 4.14 µM
GI50 (COLO 205 colon): 1.78 µM
TGI (COLO 205 colon): 3.31 µM
GI50 (OVCAR-4 ovarian): 1.93 µM
TGI (OVCAR-4 ovarian): 3.77 µM
GI50 (UACC-257 melanoma): 1.83 µM
TGI (UACC-257 melanoma): 3.51 µM
GI50 (SNB-75 CNS): 1.7 µM
TGI (SNB-75 CNS): 3.23 µM
GI50 (DU-145 prostate): 1.89 µM
TGI (DU-145 prostate): 3.36 µM
GI50 (HOP-92 NSCLC): 1.2 µM
TGI (HOP-92 NSCLC): 2.71 µM
GI50 (OVCAR-8 ovarian): 1.89 µM
TGI (OVCAR-8 ovarian): 3.86 µM
GI50 (HT29 colon): 1.77 µM
TGI (HT29 colon): 3.23 µM
GI50 (NCI-H522 lung): 1.75 µM
TGI (NCI-H522 lung): 3.35 µM
GI50 (MDA-MB-435): 1.8 µM
TGI (MDA-MB-435): 3.56 µM
GI50 (OVCAR-5 ovarian): 1.56 µM
TGI (OVCAR-5 ovarian): 3.08 µM
GI50 (HCT-116 colon): 1.53 µM
TGI (HCT-116 colon): 3.05 µM
GI50 (T-47D breast): 1.74 µM
TGI (T-47D breast): 3.8 µM
GI50 (K-562 leukemia): 1.61 µM
TGI (K-562 leukemia): 3.41 µM
GI50 (LOX IMVI melanoma): 1.66 µM
TGI (LOX IMVI melanoma): 3.6 µM
GI50 (A549 NSCLC): 1.82 µM
TGI (A549 NSCLC): 3.4 µM
GI50 (ACHN renal): 1.74 µM
TGI (ACHN renal): 3.45 µM
GI50 (KM12 colon): 1.93 µM
TGI (KM12 colon): 3.45 µM
GI50 (SW-620 colon): 1.69 µM
TGI (SW-620 colon): 3.22 µM
GI50 (RPMI-8226 leukemia): 2.07 µM
TGI (RPMI-8226 leukemia): 4.72 µM
GI50 (HCC-2998 colon): 1.49 µM
TGI (HCC-2998 colon): 2.94 µM
GI50 (HL-60(TB) leukemia): 1.77 µM
TGI (HL-60(TB) leukemia): 3.61 µM
GI50 (SK-MEL-2 melanoma): 2.2 µM
TGI (SK-MEL-2 melanoma): 3.88 µM
GI50 (EKVX NSCLC): 1.82 µM
TGI (EKVX NSCLC): 3.61 µM
GI50 (MCF7 breast): 1.48 µM
TGI (MCF7 breast): 2.96 µM

From PubChem BioAssay (NCI)
